Earlier results in patent publication US12533388B2, “Compositions and methods for prevention and treatment of immune deficiency and inflammation” (The United States GOVERNMENT As Represented By The …, priority 2020, dated 2026).

Key:
[1] = tested on: rat insulinoma cells (RINm5F); conditions: in vitro
Saccharomyces cerevisae = conditions: by inhibiting chitinase
[2] = tested on: STZ-induced diabetic mice; conditions: as compared to the STZ-induced diabetic control group without CHP treatment

SMILES: O=C1N[C@@H](Cc2cnc[nH]2)C(=O)N2CCC[C@@H]12 [CHP, Cyclo (His-Pro)]
- STZ-induced cytotoxicity and apoptosis [1]: prevented
- growth of Saccharomyces cerevisae (Saccharomyces cerevisae): inhibit
- Oral glucose tolerance test (OGTT) values [2]: significantly decreased
- plasma glucose levels dropped [2]: 60%
